According to patent US11332455B2, “α,β-unsaturated amide compound” (KYOWA KIRIN CO., LTD., priority 2015, dated 2022):

Tests used:
Test in all cases: Cell growth inhibitory effect, cell counting kit 8, 6 days
Assay type in all cases: cell-based
[1] = tested on: NCI-H226 cells, a human mesothelioma cell line; conditions: 144 h, 6 days incubation
Procedure, shortened: (§1)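 Cells grown in RPMI1640 with 10% FBS, plated at 500 cells/well (NCI-H226, NCI-H322) and incubated one day before serially diluted compound was added (0.1% DMSO final). After 6 days at 37 °C, 5% CO2, CCK-8 colour developed 2–3 h and A450 read; GI50 derived from growth inhibition rate.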

[2] = tested on: HuH28, a human liver cancer cell line; conditions: 144 h, HuH28 cells, 6 days incubation
Procedure, shortened: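 HuH28 human liver cancer cells (JCRB0426) were maintained below 80% density in RPMI1640 with 10% FBS and grown in 96-well flat-bottom plates. Test compound was serially diluted to 5 times final concentration and added with DMSO at 0.1%, then incubated for 6 days at 37° C in 5% CO2. Viable cells were counted with cell counting kit 8 at dosing and on day 6, using a 2 or 3 hour color reaction and absorbance at 450 nm. GI50 was derived from growth inhibition rates.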

[3] = tested on: NCI-H322 cells, a human lung cancer cell line; conditions: 144 h, 6 days incubation
Procedure, shortened: as §1

[4] = group 100 nmol/L to 1 μmol/L (upper bound given in μmol/L)

| SMILES | GI50 ([1]; group less than 100 nmol/L) [µM] | GI50 [2] [µM] | GI50 [3] [µM] | GI50 [1, 4] [µM] |
| --- | --- | --- | --- | --- |
| C=CC(=O)NCc1ccc(Oc2ccc(C(F)(F)F)nc2)c2ncc(C)cc12 [Compound 200, N-{(3-Methyl-8-[{6-(trifluoromethyl)pyridin-3-yl}oxy]quinolin-5-yl)methyl}acrylamide] | < 0.1 | < 3 | < 1 |  |
| C=CC(=O)NCc1ccc(Nc2ccc(C(F)(F)F)cc2)c2ncccc12 [Compound 203, N-{(8-[{4-(Trifluoromethyl)phenyl}amino]quinolin-5-yl)methyl}acrylamide] | < 0.1 | < 3 | < 1 |  |
| C=CC(=O)NCc1ccc(C(O)c2ccc(C(F)(F)F)cc2)c2ncccc12 (stereo not drawn) [Compound 206, N-{(8-[Hydroxy{4-(trifluoromethyl)phenyl}methyl]quinolin-5-yl)methyl}acrylamide] |  | < 3 | < 1 | 0.1 to 1 |
| C=CC(=O)NCc1ccc(Cc2ccc(C(F)(F)F)cc2)c2ncccc12 [Compound 211, N-([8-{4-(Trifluoromethyl)benzyl}quinolin-5-yl]methyl)acrylamide] | < 0.1 | < 3 | < 1 |  |
| C=CC(=O)NCc1cnc(Oc2ccc(C(F)(F)F)cc2)c2ccccc12 [Compound 222, N-([1-{4-(Trifluoromethyl)phenoxy}isoquinolin-4-yl]methyl)acrylamide] | < 0.1 | < 3 | < 1 |  |
| C=CC(=O)NCc1ccc(Oc2ccc(C(F)(F)F)cc2)c2cnccc12 [Compound 223, N-([8-{4-(Trifluoromethyl)phenoxy}isoquinolin-5-yl]methyl)acrylamide] | < 0.1 | < 3 | < 1 |  |
| C=CC(=O)NCc1ncc(Oc2ccc(C(F)(F)F)cc2)c2ccccc12 [Compound 224, N-([4-{4-(Trifluorophenyl)phenoxy}isoquinolin-1-yl]methyl)acrylamide] | < 0.1 | < 3 | < 1 |  |
| C=CC(=O)Nc1cnc(Oc2ccc(Cl)cc2)c2ncccc12 [Compound 226, N-{8-(4-chlorophenoxy)-1,7-naphthyridin-5-yl}acrylamide] | < 0.1 | < 3 | < 1 |  |

The remaining lines, values ahead:

| GI50 ([1]; group less than 100 nmol/L) [µM] | GI50 [2] [µM] | GI50 [3] [µM] | GI50 [1, 4] [µM] | SMILES |
| --- | --- | --- | --- | --- |
| < 0.1 | < 3 | < 1 |  | C=CC(=O)NCc1ccc(Oc2ccc(C(F)(F)F)cc2)c2ncc(C)cc12 [Compound 199, N-([3-Methyl-8-{4-(trifluoromethyl)phenoxy}quinolin-5-yl]methyl)acrylamide] |
| < 0.1 | < 3 | < 1 |  | C=CC(=O)NCc1ccc(Oc2ccc(C(F)(F)F)cc2)c2nccc(C)c12 [Compound 201, N-([4-Methyl-8-{4-(trifluoromethyl)phenoxy}quinolin-5-yl]methyl)acrylamide] |
| < 0.1 | < 3 | < 1 |  | C=CC(=O)NCc1ccc(Sc2ccc(C(F)(F)F)cc2)c2ncccc12 [Compound 202, N-{(8-[{4-(Trifluoromethyl)phenyl}thio]quinolin-5-yl)methyl}acrylamide] |
|  | < 3 | < 1 | 0.1 to 1 | C=CC(=O)NCc1ccc(C(=O)c2ccc(C(F)(F)F)cc2)c2ncccc12 [Compound 208, N-([8-{4-(Trifluoromethyl)benzoyl}quinolin-5-yl]methyl)acrylamide] |
| < 0.1 | < 3 | < 1 |  | C=CC(=O)NCc1ccc(Oc2ccc(C(F)(F)F)cc2)c2nc(C)ccc12 [Compound 212, N-([2-Methyl-8-{4-(trifluoromethyl)phenoxy}quinolin-5-yl]methyl)acrylamide] |
| < 0.1 | < 3 | < 1 |  | C=CC(=O)NCc1ccc(Oc2ccc(C(F)(F)F)cc2)c2ccncc12 [Compound 225, N-([5-{4-(Trifluoromethyl)phenoxy}isoquinolin-8-yl]methyl)acrylamide] |
| < 0.1 | < 3 | < 1 |  | C=CC(=O)NCc1cnc(Oc2ccc(Cl)cc2)c2ncccc12 [Compound 227, N-[{8-(4-Chlorophenoxy)-1,7-naphthyridin-5-yl}methyl]acrylamide] |
